Data: PubChem BioAssay (NCI)
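96-well plates; 48 h exposure; 5 concentrations. Endpoints by linear interpolation between flanking doses. Not reached: highest tested concentration assigned. At the TGI there is no net growth.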

How the values were obtained:
Experiment in all cases: NCI-60 cell line screen, 48 h
786-0 renal = system: 786-0 renal
A498 renal = system: A498 renal
A549 NSCLC = system: A549 NSCLC
ACHN renal = system: ACHN renal
CAKI-1 renal = system: CAKI-1 renal
COLO 205 colon = system: COLO 205 colon
DLD-1 colon = system: DLD-1 colon
DMS 114 small cell lung = system: DMS 114 small cell lung
DMS 273 small cell lung = system: DMS 273 small cell lung
EKVX NSCLC = system: EKVX NSCLC
HCC-2998 colon = system: HCC-2998 colon
HCT-116 colon = system: HCT-116 colon
HCT-15 colon = system: HCT-15 colon
HL-60(TB) leukemia = system: HL-60(TB) leukemia
HOP-18 NSCLC = system: HOP-18 NSCLC
HOP-62 NSCLC = system: HOP-62 NSCLC
HOP-92 NSCLC = system: HOP-92 NSCLC
HT29 colon = system: HT29 colon
IGROV1 ovarian = system: IGROV1 ovarian
KM12 colon = system: KM12 colon
KM20L2 colon = system: KM20L2 colon
LOX IMVI melanoma = system: LOX IMVI melanoma
LXFL 529 NSCLC = system: LXFL 529 NSCLC
M14 melanoma = system: M14 melanoma
M19-MEL melanoma = system: M19-MEL melanoma
MALME-3M melanoma = system: MALME-3M melanoma
MOLT-4 leukemia = system: MOLT-4 leukemia
NCI-H226 lung = system: NCI-H226 lung
NCI-H23 lung = system: NCI-H23 lung
NCI-H460 lung = system: NCI-H460 lung
NCI-H522 lung = system: NCI-H522 lung
OVCAR-3 ovarian = system: OVCAR-3 ovarian
OVCAR-4 ovarian = system: OVCAR-4 ovarian
OVCAR-5 ovarian = system: OVCAR-5 ovarian
OVCAR-8 ovarian = system: OVCAR-8 ovarian
RPMI-8226 leukemia = system: RPMI-8226 leukemia
RXF 393 renal = system: RXF 393 renal
RXF-631 renal = system: RXF-631 renal
SF-268 CNS = system: SF-268 CNS
SF-295 CNS = system: SF-295 CNS
SF-539 CNS = system: SF-539 CNS
SK-MEL-2 melanoma = system: SK-MEL-2 melanoma
SK-MEL-28 melanoma = system: SK-MEL-28 melanoma
SK-MEL-5 melanoma = system: SK-MEL-5 melanoma
SK-OV-3 ovarian = system: SK-OV-3 ovarian
SN12C renal = system: SN12C renal
SNB-75 CNS = system: SNB-75 CNS
SNB-78 CNS = system: SNB-78 CNS
SR leukemia = system: SR leukemia
SW-620 colon = system: SW-620 colon
TK-10 renal = system: TK-10 renal
U251 CNS = system: U251 CNS
UACC-257 melanoma = system: UACC-257 melanoma
UACC-62 melanoma = system: UACC-62 melanoma
UO-31 renal = system: UO-31 renal
CCRF-CEM leukemia = system: CCRF-CEM leukemia
K-562 leukemia = system: K-562 leukemia
SNB-19 CNS = system: SNB-19 CNS

O=C1C2=C(C(c3ccccc3)=C1c1ccccc1)c1ccccc1C1(c3ccccc3)C2=C(O)C(c2ccccc2)=C1c1ccccc1 (configuration not stated)
TGI (786-0 renal): > 100 µM | TGI (A498 renal): > 100 µM | TGI (A549 NSCLC): > 100 µM | TGI (ACHN renal): > 100 µM | TGI (CAKI-1 renal): > 100 µM | TGI (COLO 205 colon): > 100 µM | TGI (DLD-1 colon): > 100 µM | TGI (DMS 114 small cell lung): > 100 µM | TGI (DMS 273 small cell lung): > 100 µM | TGI (EKVX NSCLC): > 100 µM | TGI (HCC-2998 colon): > 100 µM | TGI (HCT-116 colon): > 100 µM | TGI (HCT-15 colon): > 100 µM | TGI (HL-60(TB) leukemia): > 100 µM | TGI (HOP-18 NSCLC): > 100 µM | TGI (HOP-62 NSCLC): > 100 µM | TGI (HOP-92 NSCLC): > 100 µM | TGI (HT29 colon): > 100 µM | TGI (IGROV1 ovarian): > 100 µM | TGI (KM12 colon): > 100 µM | TGI (KM20L2 colon): > 100 µM | TGI (LOX IMVI melanoma): > 100 µM | TGI (LXFL 529 NSCLC): > 100 µM | TGI (M14 melanoma): > 100 µM | TGI (M19-MEL melanoma): > 100 µM | TGI (MALME-3M melanoma): > 100 µM | TGI (MOLT-4 leukemia): > 100 µM | TGI (NCI-H226 lung): > 100 µM | TGI (NCI-H23 lung): > 100 µM | TGI (NCI-H460 lung): > 100 µM | TGI (NCI-H522 lung): > 100 µM | TGI (OVCAR-3 ovarian): > 100 µM | TGI (OVCAR-4 ovarian): > 100 µM | TGI (OVCAR-5 ovarian): > 100 µM | TGI (OVCAR-8 ovarian): > 100 µM | TGI (RPMI-8226 leukemia): > 100 µM | TGI (RXF 393 renal): > 100 µM | TGI (RXF-631 renal): > 100 µM | TGI (SF-268 CNS): > 100 µM | TGI (SF-295 CNS): > 100 µM | TGI (SF-539 CNS): > 100 µM | TGI (SK-MEL-2 melanoma): > 100 µM | TGI (SK-MEL-28 melanoma): > 100 µM | TGI (SK-MEL-5 melanoma): > 100 µM | TGI (SK-OV-3 ovarian): > 100 µM | TGI (SN12C renal): > 100 µM | TGI (SNB-75 CNS): > 100 µM | TGI (SNB-78 CNS): > 100 µM | TGI (SR leukemia): > 100 µM | TGI (SW-620 colon): > 100 µM | TGI (TK-10 renal): > 100 µM | TGI (U251 CNS): > 100 µM | TGI (UACC-257 melanoma): > 100 µM | TGI (UACC-62 melanoma): > 100 µM | TGI (UO-31 renal): > 100 µM

Nc1nc2c3c(ncn3CC(O)CO2)n1 (configuration not stated)
TGI (786-0 renal): > 100 µM | TGI (A498 renal): > 100 µM | TGI (A549 NSCLC): > 100 µM | TGI (ACHN renal): > 100 µM | TGI (CAKI-1 renal): > 100 µM | TGI (CCRF-CEM leukemia): > 100 µM | TGI (COLO 205 colon): > 100 µM | TGI (DLD-1 colon): > 100 µM | TGI (DMS 114 small cell lung): > 100 µM | TGI (DMS 273 small cell lung): > 100 µM | TGI (HCC-2998 colon): > 100 µM | TGI (HCT-116 colon): > 100 µM | TGI (HCT-15 colon): > 100 µM | TGI (HL-60(TB) leukemia): > 100 µM | TGI (HOP-18 NSCLC): > 100 µM | TGI (HOP-62 NSCLC): > 100 µM | TGI (HOP-92 NSCLC): > 100 µM | TGI (HT29 colon): 28.6 µM | TGI (IGROV1 ovarian): > 100 µM | TGI (K-562 leukemia): > 100 µM | TGI (KM12 colon): > 100 µM | TGI (KM20L2 colon): > 100 µM | TGI (LOX IMVI melanoma): > 100 µM | TGI (LXFL 529 NSCLC): > 100 µM | TGI (M14 melanoma): > 100 µM | TGI (M19-MEL melanoma): 19.4 µM | TGI (MALME-3M melanoma): > 100 µM | TGI (MOLT-4 leukemia): > 100 µM | TGI (NCI-H226 lung): > 100 µM | TGI (NCI-H23 lung): > 100 µM | TGI (NCI-H460 lung): > 100 µM | TGI (NCI-H522 lung): > 100 µM | TGI (OVCAR-3 ovarian): > 100 µM | TGI (OVCAR-4 ovarian): > 100 µM | TGI (OVCAR-5 ovarian): > 100 µM | TGI (OVCAR-8 ovarian): > 100 µM | TGI (RPMI-8226 leukemia): > 100 µM | TGI (RXF 393 renal): > 100 µM | TGI (RXF-631 renal): > 100 µM | TGI (SF-268 CNS): > 100 µM | TGI (SF-295 CNS): > 100 µM | TGI (SF-539 CNS): > 100 µM | TGI (SK-MEL-2 melanoma): > 100 µM | TGI (SK-MEL-28 melanoma): > 100 µM | TGI (SK-MEL-5 melanoma): > 100 µM | TGI (SK-OV-3 ovarian): > 100 µM | TGI (SN12C renal): > 100 µM | TGI (SNB-19 CNS): > 100 µM | TGI (SNB-75 CNS): 29 µM | TGI (SNB-78 CNS): > 100 µM | TGI (SR leukemia): > 100 µM | TGI (SW-620 colon): > 100 µM | TGI (TK-10 renal): > 100 µM | TGI (U251 CNS): > 100 µM | TGI (UACC-257 melanoma): > 100 µM | TGI (UACC-62 melanoma): > 100 µM | TGI (UO-31 renal): > 100 µM
